Key:
Type in all cases: in vivo
[1] = system: transgenic maize plants (ALT-1, ALT-2 and ALT-3); test: Tribenuron-methyl tolerance of transgenic maize plants, overall conclusion; conditions: 72 g ai/ha
Protocol: The damage degree caused by the herbicide was measured for each plant according to the plant growth status 3 days after spraying (3 DAT), 7 days after spraying (7 DAT), 14 days after spraying (14 DAT) and 21 days after spraying (21 DAT), respectively: considering a growth status equivalent to that of the untreated plants as having a damage degree of 0%; considering conditions of leaves being partially chlorotic and yellow but substantially not affecting the plant normal growth as having a damage degree of 50%; and considering the whole plant being purple and dying as having a damage degree of 100%. There were 2 strains in Zm cytoplasmic ALT-1-02 maize plants in total (S13 and S14), 2 strains in Zm chloroplastic ALT-1-02 maize plants in total (S15 and S16), 2 strains in Zm cytoplasmic ALT-2-02 maize plants in total (S17 and S18), 2 strains in Zm chloroplastic ALT-2-02 maize plants in total (S19 and S20), 2 strains in Zm cytoplasmic ALT-3-02 maize plants in total (S21 and S22), 2 strains in Zm chloroplastic ALT-3-02 maize plants in total (S23 and S24), and 1 strain in wild-type maize plants (CK2) in total; and 10-15 plants were selected from each strain and tested.

[2] = system: wild-type Arabidopsis thaliana plants; test: Herbicide tolerance of Arabidopsis thaliana plants, sprayed, resistance classes counted 14 days after spraying
From the text: (§1) T1 transformants were initially selected from the background of untransformed seeds using a glufosinate selection scheme. About 40000 T1 seeds were screened, and 380 T1 positive transformants (PAT gene) were identified with a transformation efficiency of about 0.95%. The plants that were transformed with the recombinant expression vector DBN100632 were Arabidopsis thaliana plants having an ALT-1-01 nucleotide sequence located in the cytoplasm introduced (At cytoplasmic ALT-1-01), and the plants that were transformed with the recombinant expression vector DBN100631 were Arabidopsis thaliana plants having an ALT-1-01 nucleotide sequence located in the chloroplast introduced (At chloroplastic ALT-1-01); the plants that were transformed with the recombinant expression vector DBN100634 were Arabidopsis thaliana plants having an ALT-2-01 nucleotide sequence located in the cytoplasm introduced (At cytoplasmic ALT-2-01), and the plants that were transformed with the recombinant expression vector DBN100633 were Arabidopsis thaliana plants having an ALT-2-01 nucleotide sequence located in the chloroplast introduced (At chloroplastic ALT-2-01); and the plants that were transformed with the recombinant expression vector DBN100636 were Arabidopsis thaliana plants having an ALT-3-01 nucleotide sequence located in the cytoplasm introduced (At cytoplasmic ALT-3-01), and the plants that were transformed with the recombinant expression vector DBN100635 were Arabidopsis thaliana plants having an ALT-3-01 nucleotide sequence located in the chloroplast introduced (At chloroplastic ALT-3-01).
(§2) Plants were counted for the resistance situations 14 days after spraying: those having a consistent growth status with the blank solvent (water) group after 14 days were classified as highly resistant plants, those having a bolting height less than ½ of that of the blank solvent (water) group after 14 days were classified as moderately resistant plants, those still not capable of bolting after 14 days were classified as poorly resistant plants, and those dead after 14 days were classified as non-resistant plants. Since each Arabidopsis thaliana T1 plant was an independent transformation event, a significant difference in individual T1 responses could be expected at a given dose.
as §2, with “situation” for “situations”

[3] = system: At chloroplastic ALT-3-01 T1 plants; test: Herbicide tolerance of Arabidopsis thaliana T1 plants, sprayed, resistance classes counted 14 days after spraying; conditions: sprayed at 1-fold field concentration
From the text: as §1, §2
as §2, with “situation” for “situations”

[4] = system: At cytoplasmic ALT-2-01 T1 plants; test: as above; conditions: sprayed at 1-fold field concentration
From the text: as §1, §2
as §2, with “situation” for “situations”

[5] = system: At chloroplastic ALT-1-01 T1 plants; test: as above; conditions: sprayed at 1-fold field concentration
From the text: as §1, §2
as §2, with “situation” for “situations”

[6] = system: At cytoplasmic ALT-3-01 T1 plants; test: as above; conditions: sprayed at 1-fold field concentration
From the text: as §1, §2
as §2, with “situation” for “situations”

[7] = system: At chloroplastic ALT-2-01 T1 plants; test: as above; conditions: sprayed at 1-fold field concentration
From the text: as §1, §2
as §2, with “situation” for “situations”

[8] = system: At cytoplasmic ALT-1-01 T1 plants; test: as above; conditions: sprayed at 1-fold field concentration
From the text: as §1, §2
as §2, with “situation” for “situations”

[9] = wild-type, sprayed at 1-fold field concentration, 14 days after spraying

SMILES: COC(=O)c1ccccc1S(=O)(=O)NC(=O)N(C)c1nc(C)nc(OC)n1 [tribenuron-methyl, methyl 2-[N-(4-methoxy-6-methyl-1,3,5-triazin-2-yl)-N-methylaminoformamidosulfonyl]benzoate]
- herbicide tolerance conferred by thifensulfuron hydrolase (in words) [1]: a high level of tribenuron-methyl herbicide tolerance
- herbicide tolerance (in words) ([2]; wild-type Arabidopsis thaliana plants, 18 g ai/ha): none of the wild-type Arabidopsis thaliana plants was tolerant
- Highly resistant (number of plants) [2, 9]: 0
- Moderately resistant (number of plants) [2, 9]: 0
- Non-resistant (number of plants) [2, 9]: 32
- Poorly resistant (number of plants) [2, 9]: 0
- Highly resistant (number of plants) [3]: 27
- Moderately resistant (number of plants) [3]: 0
- Non-resistant (number of plants) [3]: 2
- Poorly resistant (number of plants) [3]: 0
- Highly resistant (number of plants) [4]: 25
- Moderately resistant (number of plants) [4]: 1
- Non-resistant (number of plants) [4]: 3
- Poorly resistant (number of plants) [4]: 1
- Highly resistant (number of plants) [5]: 28
- Moderately resistant (number of plants) [5]: 0
- Non-resistant (number of plants) [5]: 2
- Poorly resistant (number of plants) [5]: 0
- Highly resistant (number of plants) [6]: 22
- Moderately resistant (number of plants) [6]: 1
- Non-resistant (number of plants) [6]: 3
- Poorly resistant (number of plants) [6]: 1
- Highly resistant (number of plants) [7]: 29
- Moderately resistant (number of plants) [7]: 0
- Non-resistant (number of plants) [7]: 1
- Poorly resistant (number of plants) [7]: 1
- Highly resistant (number of plants) [8]: 24
- Moderately resistant (number of plants) [8]: 2
- Non-resistant (number of plants) [8]: 1
- Poorly resistant (number of plants) [8]: 1

From patent US20190029252A1, “Use of Herbicide-tolerant Protein” (BEIJING DABEINONG TECHNOLOGY GROUP CO., LTD., priority 2016, published 2019)
